# Test results: patent US11498923B2 (Merck Sharp & Dohme Corp., priority 2017, dated 2022)
# Target: T1, human A2a receptor (Homo sapiens, UniProt P29274)
# T1 construct: purchased Perkin-Elmer RBHA2AM400UA; host or cells: HEK293 cells, used as a membrane preparation
# Test: A2a receptor competition binding assay (Scintillation Proximity)
# Settings: membranes from HEK293 cells expressing human A2a receptor; 0.5 nM tritiated ligand; Cheng-Prusoff; read-out: A2a Ki
# In short: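 Ki values were obtained with the Cheng-Prusoff equation from competition curves against 0.5 nM tritiated antagonist, scintillation proximity counting after 1 h room-temperature incubation. Receptor came from HEK293 membranes pretreated with adenosine deaminase; compound final range 3000–0.15 nM, buffer Ca/Mg-free PBS with 10 mM MgCl2.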
# T1 sequence (P29274 whole entry): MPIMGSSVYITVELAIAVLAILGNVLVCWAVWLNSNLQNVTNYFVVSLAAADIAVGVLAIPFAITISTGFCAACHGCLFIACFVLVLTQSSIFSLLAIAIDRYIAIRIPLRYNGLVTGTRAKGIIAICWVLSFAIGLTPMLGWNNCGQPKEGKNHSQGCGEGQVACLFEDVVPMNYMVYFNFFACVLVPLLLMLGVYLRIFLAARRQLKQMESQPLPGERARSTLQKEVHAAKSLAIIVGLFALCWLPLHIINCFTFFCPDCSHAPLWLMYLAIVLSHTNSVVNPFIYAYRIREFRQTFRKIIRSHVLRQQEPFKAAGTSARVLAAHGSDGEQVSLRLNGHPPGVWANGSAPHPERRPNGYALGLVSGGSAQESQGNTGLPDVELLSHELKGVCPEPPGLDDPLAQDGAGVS
row,Ki,SMILES
1,10 nM,"COc1cccc2c1nc(N)n1cc(Cc3cccc(-c4ccccc4)c3)nc21 [Ex-24, 2-([1,1′-biphenyl]-3-ylmethyl)-7-methoxyimidazo[1,2-c]quinazolin-5-amine]"
2,11 nM,"COc1cccc2c1nc(N)n1cc(C(=O)N3CCC4(CCCC4)C3)nc21 [Ex-222, (5-amino-7-methoxyimidazo[1,2-c]quinazolin-2-yl)(2-azaspiro[4.4]nonan-2-yl)methanone]"
3,6.3 nM,"COc1cccc2c1nc(N)n1cc(Cc3ccc(C(=O)Nc4ccccc4)cc3)nc21 [Ex-89, 4-((5-amino-7-methoxyimidazo[1,2-c]quinazolin-2-yl)methyl)-N-phenylbenzamide]"
4,2 nM,"Nc1nc2c(F)cccc2c2nc(Cc3cccc4cccnc34)cn12 [Ex-32, 7-fluoro-2-(quinolin-8-ylmethyl)imidazo[1,2-c]quinazolin-5-amine]"
5,5.9 nM,"COc1cccc2c1nc(N)n1cc(C(=O)N(C)Cc3cccc4cccnc34)nc21 [Ex-159, 5-amino-7-methoxy-N-methyl-N-(quinolin-8-ylmethyl)imidazo[1,2-c]quinazoline-2-carboxamide]"
6,2.4 nM,"COc1cccc2c1nc(N)n1cc(Cc3c(F)cccc3-c3ccc(C(F)(F)F)nc3)nc21 [Ex-79, 2-(2-fluoro-6-(6-(trifluoromethyl)pyridin-3-yl)benzyl)-7-methoxyimidazo[1,2-c]quinazolin-5-amine]"
7,40 nM,"Nc1nc2c(F)cccc2c2nc(C(=O)N3CCN4CCCC[C@H]4C3)cn12 [Ex-285, (S)-(5-amino-7-fluoroimidazo[1,2-c]quinazolin-2-yl)(octahydro-2H-pyrido[1,2-a]pyrazin-2-yl)methanone]"
8,53.8 nM,"COc1cccc2c1nc(N)n1cc(C(=O)N3CCOCC3CC(C)C)nc21 (stereo not drawn) [Ex-186, (5-amino-7-methoxyimidazo[1,2-c]quinazolin-2-yl)(3-isobutylmorpholino) methanone]"
9,3.7 nM,"CC(=O)N1CCc2c(Cc3cn4c(N)nc5c(F)cccc5c4n3)cccc2C1 [Ex-53, 1-(5-((5-amino-7-fluoroimidazo[1,2-c]quinazolin-2-yl)methyl)-3,4-dihydroisoquinolin-2(1H)-yl)ethan-1-one]"
10,190 nM,"COc1cccc2c1nc(N)n1cc(C(=O)N3CCOC(C)(C)C3)nc21 [Ex-187, (5-amino-7-methoxyimidazo[1,2-c]quinazolin-2-yl)(2,2-dimethylmorpholino) methanone]"
11,130 nM,"Cc1cc(Cc2cn3c(N)nc4c(-c5c(C)noc5C)cccc4c3n2)ccn1 [Ex-155, 7-(3,5-dimethylisoxazol-4-yl)-2-((2-methylpyridin-4-yl)methyl)imidazo[1,2-c]quinazolin-5-amine]"
12,2.3 nM,"Nc1nc2c(F)cccc2c2nc(C(=O)NCc3cccc(CN4CCOCC4)c3)cn12 [Ex-258, 5-amino-7-fluoro-N-(3-(morpholinomethyl)benzyl) imidazo[1,2-c]quinazoline-2-carboxamide]"
13,20 nM,"COc1cccc2c1nc(N)n1cc(C(=O)N3CCCC(F)C3)nc21 (stereo not drawn) [Ex-171, (5-amino-7-methoxyimidazo[1,2-c]quinazolin-2-yl)(3-fluoropiperidin-1-yl)methanone]"
14,10 nM,"COc1cccc2c1nc(N)n1cc(Cc3ccnc(N4CCOCC4)c3)nc21 [Ex-40, 7-methoxy-2-((2-morpholinopyridin-4-yl)methyl)imidazo[1,2-c]quinazolin-5-amine]"
15,53 nM,"COc1cccc2c1nc(N)n1cc(C(=O)N3C[C@@H](C)O[C@@H](C)C3)nc21 [Ex-180, (5-amino-7-methoxyimidazo[1,2-c]quinazolin-2-yl)((2R,6S)-2,6-dimethylmorpholino) methanone]"
16,100 nM,"Nc1nc2c(F)cccc2c2nc(C(=O)N3CCC4(CCCNC4)CC3)cn12 [Ex-270, (5-amino-7-fluoroimidazo[1,2-c]quinazolin-2-yl)(2,9-diazaspiro[5.5]undecan-9-yl)methanone]"
17,89.6 nM,"COc1ccc2nc(N)n3cc(Cc4ccccc4)nc3c2c1 [Ex-04, 2-benzyl-9-methoxyimidazo[1,2-c]quinazolin-5-amine]"
18,220 nM,"Nc1nc2c(F)cccc2c2nc(CC3CCN(CC4CC4)CC3)cn12 [Ex-305, 2-((1-(cyclopropyl-methyl)piperidin-4-yl)methyl)-7-fluoro-imidazo[1,2-c]quina-zolin-5-amine]"
19,4.6 nM,"COc1cccc2c1nc(N)n1cc(Cc3ccc(N4CCN(C(C)=O)CC4)nc3)nc21 [Ex-45, 1-(4-(5-((5-amino-7-methoxyimidazo[1,2-c]quinazolin-2-yl)methyl)pyridin-2-yl)piperazin-1-yl)ethan-1-one]"
20,6.2 nM,"COc1cccc2c1nc(N)n1cc(Cc3cccnc3N3CCCC3)nc21 [Ex-49, 7-methoxy-2-((2-(pyrrolidin-1-yl)pyridin-3-yl)methyl)imidazo[1,2-c]quinazolin-5-amine]"
21,27 nM,"Cn1cc(-c2ccc(F)c3nc(N)n4cc(Cc5ccccc5)nc4c23)ccc1=O [Ex-61, 5-(5-amino-2-benzyl-7-fluoroimidazo[1,2-c]quinazolin-10-yl)-1-methylpyridin-2(1H)-one]"

row,Ki,SMILES
1,7.9 nM,COc1cccc2c1nc(N)n1cc(CN3CCc4ccc(-c5cncnc5)cc4C3)nc21 [Ex-134]
2,130 nM,"CS(=O)(=O)Nc1nc2c(F)cccc2c2nc(-c3ccccc3CN3CCN(c4ccccn4)CC3)cn12 [Ex-108, N-(7-fluoro-2-(2-((4-(pyridin-2-yl)piperazin-1-yl)methyl)-phenyl)-imidazo[1,2-c]-quinazolin-5-yl)-methanesulfonamide]"
3,29.7 nM,"CN(Cc1cccc2cccnc12)C(=O)c1cn2c(N)nc3c(F)cccc3c2n1 [Ex-162, 5-amino-7-fluoro-N-methyl-N-(quinolin-8-ylmethyl)imidazo[1,2-c]quinazoline-2-carboxamide]"
4,1 nM,"COc1cccc2c1nc(N)n1cc(Cc3ccc(F)cc3F)nc21 [Ex-18, 2-(2,4-difluorobenzyl)-7-methoxyimidazo[1,2-c]quinazolin-5-amine]"
5,14 nM,"COc1cccc2c1nc(N)n1cc(C(=O)N3CCC4(CC3)CC4)nc21 [Ex-201, (5-amino-7-methoxyimidazo[1,2-c]quinazolin-2-yl)(6-azaspiro[2.5]octan-6-yl)methanone]"
6,84 nM,"Nc1nc2c(F)cccc2c2nc(Cc3ccc(C(=O)NCC(c4cccnc4)N4CCOCC4)cc3)cn12 (stereo not drawn) [Ex-88, 4-((5-amino-7-fluoroimidazo[1,2-c]quinazolin-2-yl)methyl)-N-(2-morpholino-2-(pyridin-3-yl)ethyl)benzamide]"
7,21 nM,"Nc1nc2c(F)cccc2c2nc(Cc3cccc(Cc4ccccc4)c3)cn12 [Ex-34, 2-(3-benzylbenzyl)-7-fluoroimidazo[1,2-c]quinazolin-5-amine]"
8,9.8 nM,"COc1cccc2c1nc(N)n1cc(Cc3ccc(N4CCOCC4)nc3)nc21 [Ex-39, 7-methoxy-2-((6-morpholinopyridin-3-yl)methyl)imidazo[1,2-c]quinazolin-5-amine]"
9,30.6 nM,"COc1cccc2c1nc(N)n1cc(C(=O)N3CCCC(OC)C3)nc21 (stereo not drawn) [Ex-240, (5-amino-7-methoxyimidazo[1,2-c]quinazolin-2-yl)(3-methoxypiperidin-1-yl)methanone]"
10,> 2200 nM,"CCn1cc(-c2cccc3c2nc(N)n2cc(CN(C)Cc4cccc(Cl)c4)nc32)cn1 [Ex-151, 2-(((3-chlorobenzyl)-(methyl)amino)-methyl)-7-(1-ethyl-1H-pyrazol-4-yl)imidazo[1,2-c]-quinazolin-5-amine]"
11,130 nM,"COc1cccc2c1nc(N)n1cc(C(=O)N3C[C@@H](C)O[C@H](C)C3)nc21 [Ex-239, (5-amino-7-methoxyimidazo[1,2-c]quinazolin-2-yl)((2R,6R)-2,6-dimethylmorpholino) methanone]"
12,11 nM,"COc1cccc2c1nc(N)n1cc(C(=O)N3CCC4CCCCC4C3)nc21 (stereo not drawn) [Ex-192, (5-amino-7-methoxyimidazo[1,2-c]quinazolin-2-yl)(octahydroisoquinolin-2(1H)-yl)methanone]"
13,21 nM,"COc1cccc2c1nc(N)n1cc(C(=O)N3C[C@@H](F)[C@H](F)C3)nc21 [Ex-175, (5-amino-7-methoxyimidazo[1,2-c]quinazolin-2-yl)((3R,4R)-3,4-difluoropyrrolidin-1-yl)methanone]"
14,6.3 nM,"Nc1nc2cccc(F)c2c2nc(Cc3ccccc3)cn12 [Ex-09, 2-benzyl-10-fluoroimidazo[1,2-c]quinazolin-5-amine]"
15,3 nM,"CC(=O)N1CCc2ccc(Cc3cn4c(N)nc5c(F)cccc5c4n3)cc2C1 [Ex-48, 1-(7-((5-amino-7-fluoroimidazo[1,2-c]quinazolin-2-yl)methyl)-3,4-dihydroisoquinolin-2(1H)-yl)ethan-1-one]"
16,1000 nM,"Nc1nc2ccccc2c2nc(CN3CCN(c4ccc(F)cc4F)CC3)cn12 [Ex-116, 2-((4-(2,4-difluorophenyl)piperazin-1-yl)methyl) imidazo[1,2-c] quinazolin-5-amine]"
17,> 2200 nM,"Cc1noc(C)c1-c1cccc2c1nc(N)n1cc(CNCc3ccccc3)nc21 [Ex-153, 2-((benzylamino)-methyl)-7-(3,5-dimethyl-isoxazol-4-yl)-imidazo[1,2-c]-quinazolin-5-amine]"
18,53.2 nM,"COc1cccc2c1nc(N)n1cc(CN3CCN(c4ccccc4)CC3)nc21 [Ex-110, 7-methoxy-2-((4-phenylpiperazin-1-yl)methyl)imidazo[1,2-c]quinazolin-5-amine]"
19,18 nM,"Nc1nc2c(F)cccc2c2nc(Cc3cc(F)ccc3O)cn12 [Ex-37, 2-((5-amino-7-fluoroimidazo[1,2-c]quinazolin-2-yl)methyl)-4-fluorophenol]"
20,34 nM,"Nc1nc2c(F)cccc2c2nc(CC3CCN(C(=O)c4cnccn4)CC3)cn12 [Ex-321, (4-((5-amino-7-fluoroimidazo[1,2-c]quinazolin-2-yl)-methyl)piperidin-1-yl)(pyrazin-2-yl)-methanone]"
21,3.6 nM,"Nc1nc2ccc(F)cc2c2nc(Cc3ccccc3)cn12 [Ex-08, 2-benzyl-9-fluoroimidazo[1,2-c]quinazolin-5-amine]"
